From publication PMC10931833, “Simultaneous Purification of Human Interferon Alpha-2b and Serum Albumin Using Bioprivileged Fluorinated Ionic Liquid-Based Aqueous Biphasic Systems” (International Journal of Molecular Sciences, 2024)
Where two headings read alike, the source gives them in different places.

How the values were obtained:
[1] = molecular target: T1, BSA (Bos taurus, UniProt P02769); assay: Far-UV CD secondary structure of BSA (CONTIN-LL deconvolution); format: physicochemical, bovine; parameters: Regular Alpha Helix / Distorted Alpha Helix / Regular Beta Sheet / Distorted Beta Sheet / Turns / Unordered: unit not given here; conditions: 1.0 mg/mL BSA, 25 °C
T1 construct: purchased Millipore Sigma-Aldrich
T1 sequence (P02769 25-607): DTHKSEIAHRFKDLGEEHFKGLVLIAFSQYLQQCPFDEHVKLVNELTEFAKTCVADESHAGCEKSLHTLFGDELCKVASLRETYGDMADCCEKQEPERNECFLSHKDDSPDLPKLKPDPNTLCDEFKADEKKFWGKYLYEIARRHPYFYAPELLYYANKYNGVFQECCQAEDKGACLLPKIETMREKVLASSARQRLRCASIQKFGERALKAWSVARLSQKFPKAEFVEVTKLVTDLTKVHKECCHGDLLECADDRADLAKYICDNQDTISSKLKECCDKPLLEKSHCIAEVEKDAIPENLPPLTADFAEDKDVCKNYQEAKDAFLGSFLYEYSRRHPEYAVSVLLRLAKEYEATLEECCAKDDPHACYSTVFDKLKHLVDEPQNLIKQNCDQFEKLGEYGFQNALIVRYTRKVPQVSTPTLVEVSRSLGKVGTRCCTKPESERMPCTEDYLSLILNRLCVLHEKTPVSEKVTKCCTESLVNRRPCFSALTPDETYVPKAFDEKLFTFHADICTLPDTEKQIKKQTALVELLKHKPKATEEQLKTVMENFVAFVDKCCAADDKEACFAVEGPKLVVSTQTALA
Excerpt: Circular dichroism (CD) is widely used to study the secondary structures of proteins, peptides and nucleic acids, because it requires a low concentration sample, is a nondestructive method, allows studying a wide range of variables (temperature, pH, etc.), and provides information on the effect of added ligands on protein folding and interactions. Far-UV (190–260 nm) CD spectroscopy was used to assess the IFN- α 2b and BSA secondary structure since the spectra are characteristic of different structural elements.
Circular dichroism (CD) spectra were collected in a 10 mm quartz cuvette and a Chirascan spectropolarimeter (Applied Photophysics, UK) at room temperature. All CD spectra were recorded in the far-UV range of 190 to 260 nm at scan rates of 50 nm/min, with 4 accumulations, and a response time of 3 s; CD spectra were collected. For each CD experiment, two distinct duplicates were acquired and combined. BSA was fixed at 1 mg/mL, solvent concentrations ranging from 0.1 to 200 mM were used, and the spectra were translated to MRE after being expressed in terms of molar ellipticity. Spectral deconvolution was carried out with DichroWeb using the CONTIN-LL deconvolution algorithm with the SMP180 reference set.

[2] = molecular target: T2, FITC-BSA (Bos taurus, UniProt P02769); assay: MST binding to FITC-BSA; parameters: species or system bovine; conditions: 0.41 μM BSA
T2 construct: purchased Millipore Sigma-Aldrich
T2 sequence (P02769 25-607): as above
Description: Herein, a commercial FITC labeling kit (Section 3) was used to fluorescently tag both IFN- α 2b and BSA. Typically, in the labeling process, one amine per protein is labeled, statistically distributing the position of the dye. […] The MST assay was performed as detailed in Section 3. The solutions were prepared with a concentration of IFN- α 2b and BSA fixed at 0.41 μ M in water. For IFN- α 2b a concentration of 2.7 μ M was also prepared to compare it with previous results on MST-binding between FILs and IFN- α 2b fluorescently labeled with a different tag. In each run of MST, a maximum concentration of a ligand is selected and consecutively diluted in sixteen capillaries. […] The experimental conditions of the MST assay only allow the study of the aggregation phenomenon individually for the first CAC.
Microscale thermophoresis (MST) measurements of the dye-labeled protein were used to conduct binding investigations. […] MST tests were conducted in a monolith NT.115 (blue/red) in accordance with the NanoTemper Technologies methodology. Medium MST power and 20% LED power (nano-blue) were set as the instrument’s default settings. For every MST measurement, a PBS buffer was used. The concentration of FITC-BSA was fixed at 0.4 μ M and FITC-IFN- α 2b was tested under two different concentrations (of 0.4 and 2.7 μ M). The ligand was used to create a set of 16 1:1 dilutions, with the starting ligand concentrations ranging from 10 to 400 mM. The typical parameters for MST traces were used for recording: […], 30 s MST power on, and 5 s MST power off. The data from three independently conducted pipetted experiments were examined using NanoTemper Technologies’ MO.Affinity Analysis software, version 2.3.

SMILES: CCCCn1cc[n+](C)c1.O=S(=O)([O-])C(F)(F)F [[C4C1Im][CF3SO3], 1-butyl-3-methylimidazolium trifluoromethanesulfonate]
- Distorted Alpha Helix ([1]; 0.1 mM component): 0.207
- Distorted Beta Sheet ([1]; 0.1 mM component): 0.028
- Regular Alpha Helix ([1]; 0.1 mM component): 0.403
- Regular Beta Sheet ([1]; 0.1 mM component): 0.008
- Turns ([1]; 0.1 mM component): 0.141
- Unordered ([1]; 0.1 mM component): 0.212
- Distorted Alpha Helix ([1]; 1 mM component): 0.215
- Distorted Beta Sheet ([1]; 1 mM component): 0.023
- Regular Alpha Helix ([1]; 1 mM component): 0.419
- Regular Beta Sheet ([1]; 1 mM component): 0.000
- Turns ([1]; 1 mM component): 0.135
- Unordered ([1]; 1 mM component): 0.208
- Distorted Alpha Helix ([1]; 5 mM component): 0.209
- Distorted Beta Sheet ([1]; 5 mM component): 0.025
- Regular Alpha Helix ([1]; 5 mM component): 0.403
- Regular Beta Sheet ([1]; 5 mM component): 0.000
- Turns ([1]; 5 mM component): 0.136
- Unordered ([1]; 5 mM component): 0.227
- Distorted Alpha Helix ([1]; 25 mM component): 0.180
- Distorted Beta Sheet ([1]; 25 mM component): 0.031
- Regular Alpha Helix ([1]; 25 mM component): 0.297
- Regular Beta Sheet ([1]; 25 mM component): 0.020
- Turns ([1]; 25 mM component): 0.128
- Unordered ([1]; 25 mM component): 0.344
- Distorted Alpha Helix ([1]; 55 mM component): 0.217
- Distorted Beta Sheet ([1]; 55 mM component): 0.021
- Regular Alpha Helix ([1]; 55 mM component): 0.390
- Regular Beta Sheet ([1]; 55 mM component): 0.000
- Turns ([1]; 55 mM component): 0.131
- Unordered ([1]; 55 mM component): 0.240
- Distorted Alpha Helix ([1]; 90 mM component): 0.202
- Distorted Beta Sheet ([1]; 90 mM component): 0.026
- Regular Alpha Helix ([1]; 90 mM component): 0.382
- Regular Beta Sheet ([1]; 90 mM component): 0.007
- Turns ([1]; 90 mM component): 0.136
- Unordered ([1]; 90 mM component): 0.247
- Distorted Alpha Helix ([1]; 120 mM component): 0.212
- Distorted Beta Sheet ([1]; 120 mM component): 0.019
- Regular Alpha Helix ([1]; 120 mM component): 0.378
- Regular Beta Sheet ([1]; 120 mM component): 0.000
- Turns ([1]; 120 mM component): 0.126
- Unordered ([1]; 120 mM component): 0.266
- Distorted Alpha Helix ([1]; 200 mM component): 0.223
- Distorted Beta Sheet ([1]; 200 mM component): 0.024
- Regular Alpha Helix ([1]; 200 mM component): 0.411
- Regular Beta Sheet ([1]; 200 mM component): 0.000
- Turns ([1]; 200 mM component): 0.136
- Unordered ([1]; 200 mM component): 0.206
- Kd ([2]; max. conc. first capillary 12.5 mM (monomer)): no binding detected
- Kd ([2]; max. conc. first capillary 400 mM (monomer)): no binding detected

SMILES: CCn1cc[n+](C)c1.O=S(=O)([O-])C(F)(F)C(F)(F)C(F)(F)C(F)(F)F [1-ethyl-3-methylimidazolium perfluorobutane sulfonate]
- Distorted Alpha Helix ([1]; 0.1 mM component): 0.206
- Distorted Beta Sheet ([1]; 0.1 mM component): 0.029
- Regular Alpha Helix ([1]; 0.1 mM component): 0.407
- Regular Beta Sheet ([1]; 0.1 mM component): 0.000
- Turns ([1]; 0.1 mM component): 0.142
- Unordered ([1]; 0.1 mM component): 0.216
- Distorted Alpha Helix ([1]; 1 mM component): 0.210
- Distorted Beta Sheet ([1]; 1 mM component): 0.025
- Regular Alpha Helix ([1]; 1 mM component): 0.401
- Regular Beta Sheet ([1]; 1 mM component): 0.000
- Turns ([1]; 1 mM component): 0.137
- Unordered ([1]; 1 mM component): 0.226
- Distorted Alpha Helix ([1]; 5 mM component): 0.207
- Distorted Beta Sheet ([1]; 5 mM component): 0.027
- Regular Alpha Helix ([1]; 5 mM component): 0.406
- Regular Beta Sheet ([1]; 5 mM component): 0.007
- Turns ([1]; 5 mM component): 0.138
- Unordered ([1]; 5 mM component): 0.215
- Distorted Alpha Helix ([1]; 25 mM component): 0.197
- Distorted Beta Sheet ([1]; 25 mM component): 0.035
- Regular Alpha Helix ([1]; 25 mM component): 0.384
- Regular Beta Sheet ([1]; 25 mM component): 0.023
- Turns ([1]; 25 mM component): 0.149
- Unordered ([1]; 25 mM component): 0.212
- Distorted Alpha Helix ([1]; 55 mM component): 0.210
- Distorted Beta Sheet ([1]; 55 mM component): 0.026
- Regular Alpha Helix ([1]; 55 mM component): 0.402
- Regular Beta Sheet ([1]; 55 mM component): 0.000
- Turns ([1]; 55 mM component): 0.140
- Unordered ([1]; 55 mM component): 0.223
- Distorted Alpha Helix ([1]; 90 mM component): 0.207
- Distorted Beta Sheet ([1]; 90 mM component): 0.026
- Regular Alpha Helix ([1]; 90 mM component): 0.382
- Regular Beta Sheet ([1]; 90 mM component): 0.004
- Turns ([1]; 90 mM component): 0.142
- Unordered ([1]; 90 mM component): 0.239
- Distorted Alpha Helix ([1]; 120 mM component): 0.206
- Distorted Beta Sheet ([1]; 120 mM component): 0.032
- Regular Alpha Helix ([1]; 120 mM component): 0.405
- Regular Beta Sheet ([1]; 120 mM component): 0.014
- Turns ([1]; 120 mM component): 0.147
- Unordered ([1]; 120 mM component): 0.196
- Distorted Alpha Helix ([1]; 200 mM component): 0.183
- Distorted Beta Sheet ([1]; 200 mM component): 0.025
- Regular Alpha Helix ([1]; 200 mM component): 0.316
- Regular Beta Sheet ([1]; 200 mM component): 0.014
- Turns ([1]; 200 mM component): 0.108
- Unordered ([1]; 200 mM component): 0.354
- Kd ([2]; max. conc. first capillary below 1st CAC (monomer)): no binding detected
- Kd ([2]; max. conc. first capillary in 1st CAC range, read-out: Kd): 1610 ± 390 µM
- Kd ([2]; max. conc. first capillary in 2nd CAC range, read-out: Kd): 1730 ± 420 µM
- Kd ([2]; max. conc. first capillary in 3rd CAC range, read-out: Kd): 2860 ± 1460 µM
- Kd ([2]; max. conc. first capillary in 4th CAC range): no binding detected
